Experimental data taken from patent publication US11311576B2, “Methods of use for CAR T cells” (Seattle Children's Hospital, priority 2018, dated 2022).

Columns and labels:
HOS-143b = experiment: Specific lysis at varying E/T ratios with 10 nM EC17, FR-negative cells; assay type: cell-based, human; details: 10 nM EC17, E2-CAR-T cells, 48 hours of co-culture
Protocol: (§1) After 24 hours of co-culture, supernatants were harvested to determine tumor cell killing. To study the kinetics of T cell activation and FR correlation in vitro (FIG. 60A, FIG. 60B, FIG. 60C, FIG. 60D, FIG. 60E), co-cultures were carried out in FR+/− cell lines at varying E/T ratios (1:27, 1:9, 1:3, 1:1, 3:1) in the continuous presence of 10 nM EC17. The kinetics of tumor cell killing were quantified after 16 and 48 hours of co-culture. Meanwhile, a portion of the supernatants was taken after 44 hours of co-culture for measurement of IFNg, IL-2 and TNFα. Using Promega's CytoTox 96® LDH assay kit, target cell killing was quantified and expressed as specific lysis (%) which was normalized to basal levels in the absence of EC17 at defined E/T ratios. The LEGENDplex™ human Th1 cytokine panel (BioLegend, San Diego, Calif.) was used to determine CAR-T cell derived cytokines.
Specific lysis (%) was quantified after 16 and 48 hours of co-culture, and Th1 cytokines (IFNg, TNFa) in culture media were measured after 44 hours of co-culture. […] It generally took a longer time (48 hours) and a higher E/T ratio (≥1:1) to see significant activity in the lowest FR-expressing OV90 cells (FIG. 60A). The high FR-expressing KB cells responded very slowly and also required a higher E/T ratio (≥1:3) and longer exposure time to cause significant cell death (FIG. 60B, left plot).

MDA-MB-231 = experiment: EC17 dose response, specific lysis in co-culture with E2-CAR-T cells (LDH assay); assay type: cell-based, human; details: 24 hours co-culture
Protocol: as §1
(§2) To study the robustness of CAR-T cell activation, 5 FR+ cell lines (KB, MDA-MB-231, HOS-FRα, THP1-FRβ, OV90) were used along with a wide range of EC17 concentration (0.1 pM to 100 μM) at an E/T ratio of 1:1 (FIG. 59A, FIG. 59B). Specific lysis (%) was quantified by Promega's LDH cytotoxicity assay kit after 24 hours of co25 culture. In all cell lines, EC17-dependent cytolysis followed a bell-shaped dose response with a somewhat broad concentration plateau (˜0.1 nM to […]) (FIG. 59A). […] However, maximal lysis obtained for each cell line ranked differently at 45% (MDA-MB-231), 27% (THP1-FRb), 18% (HOS-FRα), 15% (OV90) and 11% (KB) (FIG. 59B).

HOS-FRα = experiment: as above; assay type: cell-based, human; details: 24 hours co-culture
Protocol: as §1, §2

OV90 = experiment: as above; assay type: cell-based, human; details: 24 hours co-culture
Protocol: as §1, §2

THP1-FRβ = experiment: as above; assay type: cell-based, human; details: 24 hours co-culture
Protocol: as §1, §2

KB = experiment: as above; assay type: cell-based, human; details: 24 hours co-culture
Protocol: as §1, §2

FRβ (CHO-b) = target: T1, FRβ (CHO-b) (Homo sapiens, UniProt P14207); experiment: 3H-EC17 cell-based radioligand binding assay, CHO-β cells; details: 2 h at 37° C.
T1 construct: expressed in transfected cells; host or cells: CHO (Chinese hamster ovary) cells
Protocol: The bispecific affinities of EC17 CAM were assessed using ^3H-EC17 in cell-based radioligand binding assays. For binding to FR+ targets, KB and CHO-β cells were pre-seeded overnight in 24-well tissue culture plates and incubated with 0.1, 0.5, 1, 5, 10, 20, and 40 nM of ^3H-EC17 in FFRPMI for 2 h at 37° C. Afterwards, the cells were rinsed with phosphate-buffered saline (PBS, pH 7.4) and lysed with 1% sodium dodecylsulfate. The whole cell lysates were quantitated for the level of radioactivity and cellular protein content by standard Pierce BCA protein assay. The number of ^3H-EC17 molecules bound per cell was calculated to determine the dissociation constants (Kd) for FRα (KB) and FRβ (CHO-b) respectively (FIG. 56A, FIG. 56B).

[1] = Homo sapiens, EC17, E/T 1:1, curve fitted up to 100 nM, read-out: half-maximal effective concentration (EC50), specific lysis

T1 sequence (P14207 17-230): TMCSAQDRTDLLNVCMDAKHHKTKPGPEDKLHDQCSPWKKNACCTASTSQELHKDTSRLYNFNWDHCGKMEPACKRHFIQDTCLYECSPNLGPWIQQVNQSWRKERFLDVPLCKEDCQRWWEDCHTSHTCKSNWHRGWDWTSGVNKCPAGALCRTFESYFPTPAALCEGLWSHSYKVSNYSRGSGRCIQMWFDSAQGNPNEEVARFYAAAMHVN

NC1=NC2N=CC(CNc3ccc(C(=O)N[C@@H](CCC(=O)NCCNC(=S)Nc4ccc(-c5c6ccc(=O)cc-6oc6cc(O)ccc56)c(C(=O)O)c4)C(=O)O)cc3)=NC2C(=O)N1 (stereo partly drawn) [EC17, FA-(g)-ethylenediamine-FITC]
specific lysis of FR-negative cells (HOS-143b): essentially unharmed
maximal lysis (MDA-MB-231; E/T 1:1): 45%
EC50 (MDA-MB-231; Homo sapiens, MDA-MB-231, E/T 1:1, curve fitted up to 100 nM, read-out: half-maximal effective concentration (EC50), specific lysis): 4.5 pM
maximal lysis (HOS-FRα; E/T 1:1): 18%
EC50 (HOS-FRα; [1]): 30 pM
maximal lysis (OV90; E/T 1:1): 15%
EC50 (OV90; Homo sapiens, OV-90, E/T 1:1, curve fitted up to 100 nM, read-out: half-maximal effective concentration (EC50), specific lysis): 418 pM
maximal lysis (THP1-FRβ; E/T 1:1): 27%
EC50 (THP1-FRβ; [1]): 15 pM
maximal lysis (KB; E/T 1:1): 11%
EC50 (KB; Homo sapiens, KB, E/T 1:1, curve fitted up to 100 nM, read-out: half-maximal effective concentration (EC50), specific lysis): 5.3 pM
Kd (FRβ (CHO-b)): 800 pM
